The values below are quoted from earlier work in patent US20170209405A1, “APPLICATION OF COMPOUND MIXTURES TO CONTROL OXIDATION” (priority 2016, published 2017).

For series [1] the following is noted: adults.
For series [2], the system named is sperm DNA damage (DNA-strand breaks). The conditions noted are these: men aged 45 and up, highest dosages of vitamin C (up to 700 mg daily).

With `NC(=O)c1cccnc1` [nicotinamide], the “dose above which it may be toxic to the liver” value in series [1] is “exceeding 3 g/day”.
`O=C1O[C@H]([C@@H](O)CO)C(O)=C1O` [vitamin C]: in series [2], the “less DNA damage than those who took less of the supplements” value was 20%.
